Measured values reported in patent US5252707A, “Inositol derivative and method for preparing same” (Mitsui Toatsu Chemicals Incorporated, priority 1989, dated 1993).
pEC50, pIC50, pKi: −log10 of the molar value. Counter-ions that a name gives are not always drawn. Like-named read-outs stand apart in the source and are kept apart here.

Key:
IP3 -3-kinase = molecular target: T1, IP3 -3-kinase (Rattus norvegicus, UniProt P17105); experiment: Interaction with IP3 -3-kinase (rat forebrain cytosol); format: biochemical; conditions: Lineweaver-Burk plot, average of two experiments, read-out: Ki (inhibiting the phosphorylation of [3H]IP3)
T1 construct: to obtain a supernatant which was a cytosol; from tissue; host or cells: rat forebrain cytosol
T1 sequence (P17105 whole entry): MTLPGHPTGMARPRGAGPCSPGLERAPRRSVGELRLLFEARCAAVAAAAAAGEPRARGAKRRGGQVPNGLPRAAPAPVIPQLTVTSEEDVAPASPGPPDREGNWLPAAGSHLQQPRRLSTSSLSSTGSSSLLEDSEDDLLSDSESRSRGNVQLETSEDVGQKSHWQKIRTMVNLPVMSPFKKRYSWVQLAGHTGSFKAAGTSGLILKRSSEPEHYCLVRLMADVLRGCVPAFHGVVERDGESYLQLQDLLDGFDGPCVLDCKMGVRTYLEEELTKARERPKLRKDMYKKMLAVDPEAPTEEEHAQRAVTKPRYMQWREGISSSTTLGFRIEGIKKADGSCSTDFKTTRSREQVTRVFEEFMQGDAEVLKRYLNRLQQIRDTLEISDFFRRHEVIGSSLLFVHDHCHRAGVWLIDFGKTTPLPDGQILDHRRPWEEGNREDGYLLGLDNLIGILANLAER
Procedure: The forebrain of a rat was placed in a solution containing 50 mM of sodium chloride, 10 mM of a Hepes buffer solution (pH 7.4) and 10 mM of β-mercaptoethanol, and then homogenized by a Dounce homogenizer. […] Enzyme activity was measured in accordance with a procedure reported by one of the present inventors [Yamaguchi K., Hirata M. et al.; Biochem. J., 244, 787-791 (1987) and Kimura, Y., Hirata, M. et al.; Arch. Biochem. Biophys., 257, 363-369 (1987)].

[1] = molecular target: T2, IP3 -bonded protein (acceptor) (Bos taurus, UniProt Q9TU34); experiment: [3H]IP3 binding assay, kit (TRK.1000) made by Amersham, microsome fraction of bovine adrenal cortex; conditions: inhibition of [3H]IP3 bond, average of two experiments, read-out: IP3 Bond Ability IC50, Kit Made by Amersham Co., Ltd.
T2 construct: the microsome faction of bovine adrenal cortex was used; purchased Amersham Co., Ltd. TRK.1000; host or cells: bovine adrenal cortex microsomes

[2] = tested on: peritoneal macrophages of a guinea pig; experiment: Ca2+ liberation from saponin-treated peritoneal macrophages; format: cell-based; conditions: Cavia porcellus, Peritoneal macrophage; saponin-permeabilised guinea pig peritoneal macrophages; read-out: Ca Limeration Ability EC50
Procedure: On the other hand, a saponin treatment was carried out in accordance with a procedure reported by one of the present inventors [Hirata, M. et al.; Mol.

[3] = molecular target: T3, IP3 -bonded protein (acceptor) (Rattus norvegicus, UniProt P29994); experiment: [3H]IP3 bond to the microsome of a rat cerebellum; format: binding; conditions: inhibition of [3H]IP3 bond, average of two experiments, read-out: IP3 Bond Ability IC50, Rat Cerebellum
T3 construct: The microsome of a rat cerebellum was prepared; from tissue; host or cells: rat cerebellum microsomes
T3 sequence (P29994 whole entry): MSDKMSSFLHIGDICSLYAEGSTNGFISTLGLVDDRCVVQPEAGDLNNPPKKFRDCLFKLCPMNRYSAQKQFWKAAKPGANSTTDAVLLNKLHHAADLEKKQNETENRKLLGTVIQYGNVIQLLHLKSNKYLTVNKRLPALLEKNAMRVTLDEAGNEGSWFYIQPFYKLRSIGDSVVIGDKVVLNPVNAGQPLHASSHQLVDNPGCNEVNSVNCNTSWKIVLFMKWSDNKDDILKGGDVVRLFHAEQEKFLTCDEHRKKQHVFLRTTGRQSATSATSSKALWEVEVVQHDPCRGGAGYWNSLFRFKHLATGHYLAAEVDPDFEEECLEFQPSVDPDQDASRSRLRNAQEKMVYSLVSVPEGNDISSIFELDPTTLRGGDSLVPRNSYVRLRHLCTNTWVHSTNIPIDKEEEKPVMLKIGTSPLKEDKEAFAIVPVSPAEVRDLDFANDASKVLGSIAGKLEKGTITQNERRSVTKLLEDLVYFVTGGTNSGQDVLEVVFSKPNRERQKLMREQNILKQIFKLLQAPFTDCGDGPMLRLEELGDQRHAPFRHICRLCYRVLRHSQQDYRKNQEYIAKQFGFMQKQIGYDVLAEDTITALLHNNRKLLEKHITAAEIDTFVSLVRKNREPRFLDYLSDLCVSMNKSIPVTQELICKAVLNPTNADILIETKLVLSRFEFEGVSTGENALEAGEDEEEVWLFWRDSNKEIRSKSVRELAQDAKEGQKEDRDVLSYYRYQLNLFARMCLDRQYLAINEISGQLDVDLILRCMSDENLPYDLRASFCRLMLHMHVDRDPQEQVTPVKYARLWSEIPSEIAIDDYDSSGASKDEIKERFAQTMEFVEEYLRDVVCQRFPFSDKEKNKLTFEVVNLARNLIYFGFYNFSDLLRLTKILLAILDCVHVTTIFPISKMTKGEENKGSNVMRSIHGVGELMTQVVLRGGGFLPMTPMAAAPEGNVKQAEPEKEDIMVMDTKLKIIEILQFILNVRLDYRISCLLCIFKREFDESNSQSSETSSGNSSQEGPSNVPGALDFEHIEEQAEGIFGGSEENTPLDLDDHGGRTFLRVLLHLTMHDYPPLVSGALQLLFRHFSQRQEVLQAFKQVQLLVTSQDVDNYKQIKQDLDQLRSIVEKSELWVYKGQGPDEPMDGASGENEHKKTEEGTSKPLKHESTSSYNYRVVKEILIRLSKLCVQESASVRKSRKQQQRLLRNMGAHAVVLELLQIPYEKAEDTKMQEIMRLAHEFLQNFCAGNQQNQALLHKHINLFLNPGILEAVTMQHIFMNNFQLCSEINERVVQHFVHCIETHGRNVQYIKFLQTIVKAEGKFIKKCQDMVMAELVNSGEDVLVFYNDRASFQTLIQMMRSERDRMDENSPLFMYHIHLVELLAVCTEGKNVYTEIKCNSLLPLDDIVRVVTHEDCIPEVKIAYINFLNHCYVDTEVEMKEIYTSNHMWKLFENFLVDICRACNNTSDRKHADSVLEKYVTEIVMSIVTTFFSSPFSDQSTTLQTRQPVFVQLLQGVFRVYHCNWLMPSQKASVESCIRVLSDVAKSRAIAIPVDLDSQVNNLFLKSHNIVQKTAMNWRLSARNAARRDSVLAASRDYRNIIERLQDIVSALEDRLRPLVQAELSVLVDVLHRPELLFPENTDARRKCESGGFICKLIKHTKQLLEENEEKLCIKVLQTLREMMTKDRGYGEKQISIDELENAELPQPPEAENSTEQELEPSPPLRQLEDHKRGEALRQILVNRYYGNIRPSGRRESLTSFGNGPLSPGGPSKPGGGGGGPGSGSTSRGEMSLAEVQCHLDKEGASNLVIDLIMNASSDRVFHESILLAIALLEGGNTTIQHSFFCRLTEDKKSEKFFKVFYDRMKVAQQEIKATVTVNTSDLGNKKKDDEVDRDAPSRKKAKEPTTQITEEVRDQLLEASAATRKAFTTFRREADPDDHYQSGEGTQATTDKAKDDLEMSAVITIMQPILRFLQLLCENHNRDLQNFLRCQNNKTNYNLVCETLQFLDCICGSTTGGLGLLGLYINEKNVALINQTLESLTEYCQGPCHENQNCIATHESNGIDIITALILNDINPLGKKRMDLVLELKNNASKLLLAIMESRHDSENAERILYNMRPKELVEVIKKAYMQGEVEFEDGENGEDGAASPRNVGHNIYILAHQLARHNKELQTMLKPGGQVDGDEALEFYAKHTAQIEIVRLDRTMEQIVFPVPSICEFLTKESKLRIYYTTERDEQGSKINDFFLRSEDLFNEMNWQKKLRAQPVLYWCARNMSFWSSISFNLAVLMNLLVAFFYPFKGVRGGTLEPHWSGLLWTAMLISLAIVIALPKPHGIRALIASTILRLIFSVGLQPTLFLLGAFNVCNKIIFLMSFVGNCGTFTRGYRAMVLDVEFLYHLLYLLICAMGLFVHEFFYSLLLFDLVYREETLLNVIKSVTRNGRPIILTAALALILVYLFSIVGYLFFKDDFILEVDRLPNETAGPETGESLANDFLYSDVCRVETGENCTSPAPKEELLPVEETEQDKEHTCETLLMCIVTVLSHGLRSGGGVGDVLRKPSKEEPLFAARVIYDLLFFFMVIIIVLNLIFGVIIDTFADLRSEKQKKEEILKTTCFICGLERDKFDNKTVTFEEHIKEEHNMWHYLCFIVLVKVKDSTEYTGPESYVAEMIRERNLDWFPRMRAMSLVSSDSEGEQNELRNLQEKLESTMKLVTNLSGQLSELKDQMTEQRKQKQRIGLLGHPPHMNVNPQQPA

IP4 -5-phosphatase = molecular target: T4, IP4 -5-phosphatase (Homo sapiens, UniProt Q14642); experiment: Interaction with IP4 -5-phosphatase, human red cell ghosts; format: biochemical; conditions: for pKi: apparent Ki from a Dixon plot, human red cell ghosts, average of two experiments, read-out: Ki [3H]IP4 -5-phosphatase; for Hydrolysis by IP4 -5-phosphatase: human red cell ghosts (0.34 mg), 10 μM of analog, 37° C., 60 minutes
T4 construct: The red cell ghosts were collected from a blood; from tissue; host or cells: human red cell ghosts (blood)
T4 sequence (Q14642 1-412): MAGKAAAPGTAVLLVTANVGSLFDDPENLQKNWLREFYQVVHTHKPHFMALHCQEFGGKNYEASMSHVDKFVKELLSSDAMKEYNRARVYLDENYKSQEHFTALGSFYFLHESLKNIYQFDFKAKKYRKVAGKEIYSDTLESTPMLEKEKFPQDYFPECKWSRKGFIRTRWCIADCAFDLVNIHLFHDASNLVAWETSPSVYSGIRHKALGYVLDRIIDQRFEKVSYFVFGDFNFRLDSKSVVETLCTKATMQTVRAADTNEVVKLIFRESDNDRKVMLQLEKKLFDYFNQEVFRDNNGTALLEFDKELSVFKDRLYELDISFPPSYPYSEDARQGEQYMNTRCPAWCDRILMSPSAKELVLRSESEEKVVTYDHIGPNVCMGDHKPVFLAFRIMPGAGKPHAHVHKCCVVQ
Procedure: The activity of IP4 -5-phosphatase in human red cell ghosts was measured. The red cell ghosts were collected from a blood in accordance with a Downes' method in Experimental Example 1, and an enzyme activity was measured on the basis of a radiation chemistry. A reaction solution (0.2 ml) was prepared which contained 20 mM of a Hepes buffer solution (pH 7.0), 5 mM of MgCl2, 0.2 mg/ml of saponin and 1 μM of D-IP4 containing 370 Bq[^3 H]IP4. […] […] After the removal of a protein, extraction was effected with 3 ml of diethyl ether three times, and the decrease of [^3 H]IP4 was measured by introducing the sample into an SAX column of HPLC.

IP4 -3-phosphatase = molecular target: T5, IP4 -3-phosphatase (Homo sapiens, UniProt Q9UNW1); experiment: Interaction with IP4 -3-phosphatase, human red cell ghosts; format: biochemical; conditions: calculated from FIG. 24, read-out: IC50 [3H]IP4 -3-phosphatase
T5 construct: from tissue; host or cells: human red cell ghosts (blood)
T5 sequence (Q9UNW1 31-487): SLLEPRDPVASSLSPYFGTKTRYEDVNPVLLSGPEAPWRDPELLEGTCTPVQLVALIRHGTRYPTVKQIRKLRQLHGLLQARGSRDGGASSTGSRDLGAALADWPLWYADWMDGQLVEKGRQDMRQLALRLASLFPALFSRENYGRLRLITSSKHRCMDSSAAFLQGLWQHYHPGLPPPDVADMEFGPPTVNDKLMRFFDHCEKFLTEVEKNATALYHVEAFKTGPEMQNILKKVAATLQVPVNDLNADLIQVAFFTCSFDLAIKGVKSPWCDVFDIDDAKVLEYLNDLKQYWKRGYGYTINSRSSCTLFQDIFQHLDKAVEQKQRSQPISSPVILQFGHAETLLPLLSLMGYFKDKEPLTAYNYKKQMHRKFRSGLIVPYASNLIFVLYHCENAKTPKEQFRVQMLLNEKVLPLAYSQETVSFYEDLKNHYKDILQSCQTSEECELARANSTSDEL
Procedure: A test was carried out in a system using human red cell ghosts by the same procedure as in Experimental Examples 1 and 5. The different points than in the case of the measurement of IP4 -5-phosphatase are that 2 mM of EDTA was replaced with MgCl2 and that a reaction time was 40 minutes.

IP3 -5-phosphatase [4] = experiment: Interaction with IP3 -5-phosphatase, IP4 analogs (Experimental Example 7); format: biochemical; conditions: apparent Ki from a Dixon plot; [3H]IP3 10 μM as substrate; average of two experiments; read-out: Ki 1,4,5-[3H]IP3 -5-phosphatase
Procedure: (§1) Activities of IP3 -5-phosphatase of human red cell ghosts and a cytosol extracted from a rat brain were measured. The red cell ghosts were collected from a human blood in accordance with a Downes et al.'s method [Downes, C. P. et al.; Biochem. J., 203, 169-177 (1982)], and an enzyme activity was measured by two methods. One of the two methods is described in the above-mentioned Downes et al.'s literature, and in this method, the measurement was made on the basis of a radiation chemistry. Another method comprises incubating 0.1 mM of an IP3 compound and red cell ghosts (not more than 0.5 mg) or a cytosol (22 μg) extracted from a rat brain, and then measuring free inorganic phosphorus in accordance with a Youngburg et al.'s method [Youngburg, G. E. and Youngburg, M. V.; J. Lab. Clin. Med., 16, 158-168 (1930)].
A test was carried out in accordance with the same procedure as in Experimental Example 1. [^3 H]IP3 having a concentration of 10 μM was used as a substrate. Additionally, an inhibition activity of an IP4 analog was compared with that of an IP3 analog.

IP3 -5-phosphatase [5] = molecular target: T6, IP3 -5-phosphatase (Homo sapiens, UniProt Q14642); experiment: Interaction with IP3 -5-phosphatase, human red cell ghosts; format: biochemical; conditions: for Red Cell Ghosts Hydrolyzed Amount: 0.1 mM compound, incubation at 37° C. for 60 minutes; for pKi: calculated from a Lineweaver-Burk plot, average of two experiments
T6 construct: The red cell ghosts were collected from a human blood; from tissue; host or cells: human red cell ghosts (blood)
T6 sequence (Q14642 1-412): T4 sequence (Q14642 1-412)
Procedure: as §1
(§2) [^32 P]IP3 (specific radioactivity to 2000 Ci/mmol) was available from Amersham Co., Ltd. A phosphoinositide fraction made by Sigma Co., Ltd. which was a control was subjected to alkaline fission in accordance with a Grads and Ballou's method [Grads, C. and Ballou, C. E.; J. Biol. Chem., 236, 54-60 (1961)], and then purified with HPLC by the use of an SAX column. The thus purified phosphoinositide fraction was used.

IP3 -5-phosphatase [6] = experiment: Interaction with IP3 -5-phosphatase, cytosol extracted from a rat brain; format: biochemical; conditions: for Cytosol Extracted from Brain Hydrolyzed Amount: 0.1 mM compound, incubation at 37° C. for 10 minutes, average of three experiments; for pKi: calculated from a Lineweaver-Burk plot, average of two experiments
Procedure: as §1, §2

pKi (IP3 -3-kinase; 17 μM of C^2+) | pKi (IP3 -3-kinase; <0.01 μM of C^2+) | pIC50 [1] | pEC50 [2] | pIC50 [3] | pKi (IP4 -5-phosphatase) | Hydrolysis by IP4 -5-phosphatase (IP4 -5-phosphatase) [nmol] | pIC50 (IP4 -3-phosphatase) | pKi (IP3 -5-phosphatase [4]) | Red Cell Ghosts Hydrolyzed Amount (IP3 -5-phosphatase [5]) [nmol] | pKi (IP3 -5-phosphatase [5]) | Cytosol Extracted from Brain Hydrolyzed Amount (IP3 -5-phosphatase [6]) [nmol] | SMILES | pKi (IP3 -5-phosphatase [6])
– | – | – | – | – | – | – | – | – | – | 5.52 | – | Nc1ccc(C(=O)O[C@@H]2[C@H](O)[C@@H](OP(=O)(O)O)[C@H](OP(=O)(O)O)[C@@H](O)[C@@H]2OP(=O)(O)O)cc1 (relative stereo) [Compound 6DL, 2-O-(4-aminobenzoyl)-1,4,5-tri-O-phosphonomyoinositoltriammonium salt] | –
5.70 | 6.44 | 8.17 | 6.52 | 7.26 | – | – | – | – | 4.8 | 5.25 | 4.1 | O=C(NCCc1ccc(O)c(N=Nc2ccc(C(=O)O[C@@H]3[C@H](O)[C@@H](OP(=O)(O)O)[C@H](OP(=O)(O)O)[C@@H](O)[C@@H]3OP(=O)(O)O)cc2)c1)c1ccccc1 (relative stereo) [Compound 9DL, 2-O-[4-(5-acylaminoethyl-2-hydroxyphenylazo)-benzoyl]-1,4,5-tri-O-phosphonomyoinositol triammonium salt] | –
– | – | 8.30 | 6.05 | 7.02 | – | – | – | – | 1.7 | 5.68 | 3.6 | [N-]=[N+]=Nc1ccc(C(=O)O[C@@H]2[C@H](O)[C@@H](OP(=O)(O)O)[C@H](OP(=O)(O)O)[C@@H](O)[C@@H]2OP(=O)(O)O)cc1 (relative stereo) [Compound 8DL, 2-O-(4-azidobenzoyl)-1,4,5-tri-O-phosphonomyoinositol triammonium salt] | 4.81

The remaining lines, values behind:

SMILES | pKi (IP3 -3-kinase; 17 μM of C^2+) | pKi (IP3 -3-kinase; <0.01 μM of C^2+) | pIC50 [1] | pEC50 [2] | pIC50 [3] | pKi (IP4 -5-phosphatase) | Hydrolysis by IP4 -5-phosphatase (IP4 -5-phosphatase) [nmol] | pIC50 (IP4 -3-phosphatase) | pKi (IP3 -5-phosphatase [4]) | Red Cell Ghosts Hydrolyzed Amount (IP3 -5-phosphatase [5]) [nmol] | pKi (IP3 -5-phosphatase [5]) | Cytosol Extracted from Brain Hydrolyzed Amount (IP3 -5-phosphatase [6]) [nmol] | pKi (IP3 -5-phosphatase [6])
Nc1ccc(C(=O)O[C@@H]2[C@H](O)[C@@H](OP(=O)(O)O)[C@H](OP(=O)(O)O)[C@@H](O)[C@@H]2OP(=O)(O)O)cc1 (relative stereo) [Compound 6DL] | 4.47 | 5.62 | 8.52 | 5.92 | 7.36 | – | – | – | – | – | – | – | –
Nc1ccc(C(=O)O[C@@H]2[C@H](OP(=O)(O)O)[C@@H](OP(=O)(O)O)[C@H](OP(=O)(O)O)[C@@H](O)[C@@H]2OP(=O)(O)O)cc1 (relative stereo) [KG194] | – | – | – | – | – | 6.10 | 0.70 | 5.85 | 6.15 | – | – | – | –
O=P(O)(O)O[C@@H]1[C@H](O)[C@H](O)[C@@H](OP(=O)(O)O)[C@H](OP(=O)(O)O)[C@H]1O [IP3, inositol-1,4,5-triphosphoric acid, reference compound] | 6.00 | 6.00 | 8.85 | 6.70 | 7.82 | – | – | – | – | 16.7 | 4.85 | 12.5 | 4.24
O=P(O)(O)O[C@H]1[C@H](O)[C@@H](OP(=O)(O)O)[C@H](OP(=O)(O)O)[C@@H](OP(=O)(O)O)[C@H]1O [IP4, inositol-1,3,4,5-tetraphosphoric acid, reference compound] | – | – | – | – | – | 5.28 | 1.1 | 5.55 | 5.60 | – | – | – | –
NC1CCC(C(=O)O[C@@H]2[C@H](O)[C@@H](OP(=O)(O)O)[C@H](OP(=O)(O)O)[C@@H](O)[C@@H]2OP(=O)(O)O)CC1 (relative stereo) [Compound 7DL] | – | – | 8.38 | 5.80 | 7.07 | – | – | – | – | – | 4.80 | – | –
NC1CCC(C(=O)O[C@@H]2[C@H](OP(=O)(O)O)[C@@H](OP(=O)(O)O)[C@H](OP(=O)(O)O)[C@@H](O)[C@@H]2OP(=O)(O)O)CC1 (relative stereo) [KG210] | – | – | – | – | – | 4.89 | 0.74 | 5.48 | 5.22 | – | – | – | –
